According to publication PMC10144134, “Characterization of Potent ABCG2 Inhibitor Derived from Chromone: From the Mechanism of Inhibition to Human Extracellular Vesicles for Drug Delivery” (Pharmaceutics, 2023):
Entries after “also recorded” stand apart in the source; their conditions may differ. One block for each compound: values may come before it.

Columns and labels:
[1] = target: T1, ABCG2 versus P-gp (Homo sapiens, UniProt Q9UNQ0); test: in vitro; conditions: high-five membrane vesicles, pH 6.8
T1 sequence (Q9UNQ0 1-655): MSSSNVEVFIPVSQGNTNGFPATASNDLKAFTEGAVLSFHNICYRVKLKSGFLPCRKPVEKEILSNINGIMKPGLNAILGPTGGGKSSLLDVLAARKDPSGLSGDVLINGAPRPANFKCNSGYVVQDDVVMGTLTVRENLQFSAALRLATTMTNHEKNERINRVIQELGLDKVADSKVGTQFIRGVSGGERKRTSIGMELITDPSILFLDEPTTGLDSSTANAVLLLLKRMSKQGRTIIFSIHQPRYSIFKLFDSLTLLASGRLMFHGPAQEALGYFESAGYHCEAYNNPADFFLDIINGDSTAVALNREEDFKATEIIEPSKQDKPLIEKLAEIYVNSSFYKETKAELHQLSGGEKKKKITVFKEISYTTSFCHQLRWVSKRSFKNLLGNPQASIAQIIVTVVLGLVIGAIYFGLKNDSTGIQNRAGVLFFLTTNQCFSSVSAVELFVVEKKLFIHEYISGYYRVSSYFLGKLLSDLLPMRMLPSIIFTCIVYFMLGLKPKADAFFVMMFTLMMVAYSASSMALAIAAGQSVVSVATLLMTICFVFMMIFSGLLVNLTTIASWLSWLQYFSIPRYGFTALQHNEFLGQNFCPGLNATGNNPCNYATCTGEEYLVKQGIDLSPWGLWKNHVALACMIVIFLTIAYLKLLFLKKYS
Description: (§4) The absorbance was measured after 10 min incubation at room temperature using the spectrophotometer Ultrospec 3100 pro (Amersham Biosciences, Amersham, UK) at 880 nm wavelength.

[2] = target: T2, P-gp (Homo sapiens, UniProt P08183); test: ATPase activity, High-Five P-gp total membrane vesicles
Description: as §4

[3] = target: T2, P-gp; test: Thermostabilization assay on ATPase activity of P-gp; assay type: biochemical; design: made in house; host or cells: High-Five insect cells (total membrane vesicles); conditions: C4a 10 μM
Description: (§1) The thermal stability assay was performed according to previous reports. […] To evaluate the effect of C4a over thermal stability, each sample was prepared with 12.5 mM MgCl2 or 6.25 mM ATP and incubated at a temperature ranging from 37 to 71 °C for 10 min using a thermocycler C1000 Touch (Bio-Rad, Hercules, CA, USA). After incubation, 10 µL of 25 mM ATP or 50 mM MgCl2 (5 and 10 mM final concentration, respectively) was added and incubated at 37 °C/20 min to allow ATP hydrolysis. The reaction was stopped with the addition of 50 µL of Pi reagent containing 1% ammonium molybdate, 2.5 N H2SO4 and 0.014% potassium-antimony tartrate. To evaluate the absorbance, the samples were transferred to a 96-well plate (50 µL/well), then 150 µL of 0.33% sodium ascorbate solution was added. The absorbance was measured after 10 min incubation at room temperature using the microplate reader Spectramax iD3 (Molecular Devices, San Jose, CA, USA). The sensitive activity to vanadate (Vi) was calculated as the difference between the activity in the absence of Vi minus the activity in the presence of Vi at each temperature.

[4] = target: T3, ABCG2 (Homo sapiens, UniProt Q9UNQ0); test: 5D3 shift assay; assay type: cell-based; design: expressed in transfected cells; host or cells: HEK293 (stably transfected, G418 selection; gift of Dr. Attilio Di Pietro); conditions: C4a 10 µM, Ko143 2 µM, HEK293-ABCG2
T3 sequence (Q9UNQ0 1-655): T1 sequence (Q9UNQ0 1-655)
Description: HEK293-ABCG2 cells were seeded into 24-well plates at a density of 2 × 10^5 cells/well. When the confluence reached 90–95%, the medium was removed and the cells were exposed to inhibitors for 30 min at 37 °C. Then, the cell monolayer was washed with PBS at 37 °C, trypsinized and resuspended with 300 µL of PBS. Cells were centrifuged (1000× g for 3 min). The pellet was resuspended in 100 μL of PBS/BSA (40 μg/mL of BSA) and the primary antibody (mouse anti-human CD338 Clone 5D3, BD Pharmingen, San Diego, CA, USA) was added (1:100) for 30 min at 37 °C. Cells were centrifuged (1000× g, 3 min), the supernatant removed and the pellet resuspended with 100 μL of PBS containing the secondary antibody (goat anti-mouse conjugated with Phycoerythrin, BD Pharmingen, San Diego, CA, USA) at 1:200 for 30 min at 37 °C. Then, cells were centrifuged, the supernatant removed and the pellet was resuspended in 300 μL of PBS. The analysis was performed using a FACS Calibur (Becton Dickinson, San Diego, CA, USA).

[5] = target: T3, ABCG2; test: Thermostabilization assay on ATPase activity of ABCG2; assay type: biochemical; design: expressed in transfected cells; host or cells: HEK293 (stably transfected, G418 selection; gift of Dr. Attilio Di Pietro); conditions: C4a 10 μM
Description: as §1

[6] = Water solubility; assay type: physicochemical; conditions: aqueous
[7] = target: T2, P-gp; test: Cell-based transport assay by flow cytometry, NIH3T3-ABCB1; conditions: 10 µM, rhodamine 123 10 µM
Description: (§2) Cell lines (HEK293-ABCG, NIH3T3-ABCB1 and BHK21-ABCC1) were kept at 37 °C in the presence of 5% CO2 in DMEM high glucose (Gibco, Sao Paulo, Brazil) supplemented with 10% Fetal Bovine Serum (Gibco, Sao Paulo, Brazil) and 1% antibiotic (penicillin/streptomycin–Hyclone Laboratories, Logan, UT, USA). The stably transfected cells were kept with specific selection agent for each ABC transporter: ABCG2–G418 0.75 mg/mL, P-gp–Colchicine 60 ng/mL, MRP1–Methotrexate 0.1 mg/mL. The cells HEK293-ABCG2, NIH3T3-ABCB1 and BHK21-ABCC1, overexpressing ABCG2, P-gp and MRP1, respectively, were kindly provided by Dr. Attilio Di Pietro (IBCP, Lyon, France).
Cells were seeded into 24-well plates at a density of 1 × 10^5 cells/well and incubated for 48 h at 37 °C and 5% of CO2. […] The intracellular fluorescence was recorded by flow cytometry (FACS Calibur–Becton Dickinson, San Diego, CA, USA). […] The inhibition percent was calculated as follows: % of inhibition = ((C − S))/((I − S)) × 100, where “C” represents the treatment with substrate + compound in test, “S” represents the treatment with substrate alone and “I” represents the treatment with substrate + reference inhibitor.
This study was approved by the Ethics Committee of SCS/UFPR (CAAE 51428521.2.0000.0102). […] The protein concentration was quantified by Bradford assay. […]

[8] = target: T3, ABCG2; test: Cell-based transport assay by confocal microscopy; design: expressed in transfected cells; host or cells: HEK293 (stably transfected, G418 selection; gift of Dr. Attilio Di Pietro); conditions: 10 µM, hoechst 33342 2 µM
Description: Cells were seeded into 24-well plates at a density of 1 × 10^5 cells/well containing coverslips for microscopy and incubated for 48 h at 37 °C and 5% of CO2. Cells that adhered to the coverslips were treated with C4a and hoechst 33342 for 30 min at 37 °C. Then, the cell monolayer was washed with PBS at 37 °C and the coverslips removed from the plate and placed on slides for microscopy. The slides were then read in a confocal microscope Nikon A1R MP + (NIKON, Tokyo, Japan) using an oil-immersed 40× objective (with the numerical aperture of 1.15). A laser of 405 nm was used for excitation and the fluorescence emission was recorded using a bandpass filter of 425–475 nm. The software Nis Elements 4.20 (NIKON, Tokyo, Japan) was used for visualization of the images.

[9] = target: T3, ABCG2; test: ATPase activity, High-Five ABCG2 total membrane vesicles
Description: as §4

[10] = target: T3, ABCG2; test: Cell-based transport assay by flow cytometry, HEK293-ABCG2; design: expressed in transfected cells; host or cells: HEK293 (stably transfected, G418 selection; gift of Dr. Attilio Di Pietro)
Description: as §2
Cells were seeded into 24-well plates at a density of 1 × 10^5 cells/well and incubated for 48 h at 37 °C and 5% of CO2. When the confluence reached 90–95%, the medium was removed and the cells were exposed to inhibitors and substrates for 30 min at 37 °C. Then, the cell monolayer was washed with PBS at 37 °C, trypsinized and resuspended with 300 µL of cold PBS. The intracellular fluorescence was recorded by flow cytometry (FACS Calibur–Becton Dickinson, San Diego, CA, USA). At least 10,000 events were acquired. […] The inhibition percent was calculated as follows: % of inhibition = ((C − S))/((I − S)) × 100, where “C” represents the treatment with substrate + compound in test, “S” represents the treatment with substrate alone and “I” represents the treatment with substrate + reference inhibitor.
This study was approved by the Ethics Committee of SCS/UFPR (CAAE 51428521.2.0000.0102). Human blood (9 mL) was collected in tubes containing 8 mM of EGTA and centrifuged at 425× g for 10 min at room temperature. Human plasma (~4 mL) was separated in a new tube. In the tube containing blood cells (~5 mL), the same volume of RPMI (~5 mL) was added. The material was homogenized and centrifuged at 425× g for 10 min at room temperature. The supernatant was discarded, and the pellet of cells was centrifuged again at 425× g for 10 min, then, the supernatant was discarded, and the pellet was suspended in 5 mL of RPMI containing 2 mM of CaCl2. After 1 h of incubation at 37 °C, the material was centrifuged at 425× g for 10 min at 10 °C. Additionally, the tube containing the human plasma was also centrifuged at 425× g for 10 min at 10 °C. The supernatant from both tubes (human cells and plasma) was centrifuged at 4000 g for 10 min at 10 °C. The supernatant was separated and centrifuged at […] for 120 min at 10 °C. The supernatant was discarded and the pellet containing the vesicles was suspended in 60 µL of PBS. The protein concentration was quantified by Bradford assay. For each condition, 10 µL of the vesicles in PBS was diluted by adding 190 µL of PBS. […]

[11] = tested on: HEK293-ABCG2 cells; test: MTT chemosensitization assay, HEK293-ABCG2; assay type: cell-based, human
Description: (§3) HEK293 WT (wild type) and HEK293-ABCG2 cells were seeded (2.5 × 10^4 cell/well) into a 96-well plate and incubated for 24 h. Cells were concomitantly treated with EVs […]C4a (0.1, 1 and 10 μM) and SN-38 (10 nM) for 72 h. After this period, the medium was removed, cells were washed with PBS (100 μL) and incubated with MTT solution (100 μL of solution 0.5 mg/mL in PBS) for 4 h. Then, the solution was removed, and the formazan crystals were dissolved with 100 μL of ethanol/DMSO (1:1). The absorbance was measured using a microplate reader at 595 nm (Bio-Rad iMark, Hercules, CA, USA).

[12] = tested on: T4, MRP1; test: Cell-based transport assay by flow cytometry, BHK21-ABCC1; design: species or system human; conditions: 10 µM, calcein-AM 0.2 µM
T4 construct: expressed in transfected cells; host or cells: BHK21 (stably transfected, methotrexate selection; gift of Dr. Attilio Di Pietro)
Description: as §2
Cells were seeded into 24-well plates at a density of 1 × 10^5 cells/well and incubated for 48 h at 37 °C and 5% of CO2. When the confluence reached 90–95%, the medium was removed and the cells were exposed to inhibitors and substrates for 30 min at 37 °C. […] The intracellular fluorescence was recorded by flow cytometry (FACS Calibur–Becton Dickinson, San Diego, CA, USA). […] The inhibition percent was calculated as follows: % of inhibition = ((C − S))/((I − S)) × 100, where “C” represents the treatment with substrate + compound in test, “S” represents the treatment with substrate alone and “I” represents the treatment with substrate + reference inhibitor.

[13] = target: T3, ABCG2; design: expressed in transfected cells; host or cells: HEK293 (stably transfected, G418 selection; gift of Dr. Attilio Di Pietro); conditions: read-out: IC50 of ABCG2 inhibition; cited from earlier work
[14] = tested on: implanted ABCG2-positive tumors; conditions: cited from earlier work
[15] = design: method as in PMID 17317193; conditions: cited from earlier work
[16] = tested on: HEK293 WT cells; test: MTT cell viability, HEK293 WT; assay type: cell-based, human; conditions: SN38 10 nM, 72 h
Description: as §3

T2 sequence (P08183 whole entry): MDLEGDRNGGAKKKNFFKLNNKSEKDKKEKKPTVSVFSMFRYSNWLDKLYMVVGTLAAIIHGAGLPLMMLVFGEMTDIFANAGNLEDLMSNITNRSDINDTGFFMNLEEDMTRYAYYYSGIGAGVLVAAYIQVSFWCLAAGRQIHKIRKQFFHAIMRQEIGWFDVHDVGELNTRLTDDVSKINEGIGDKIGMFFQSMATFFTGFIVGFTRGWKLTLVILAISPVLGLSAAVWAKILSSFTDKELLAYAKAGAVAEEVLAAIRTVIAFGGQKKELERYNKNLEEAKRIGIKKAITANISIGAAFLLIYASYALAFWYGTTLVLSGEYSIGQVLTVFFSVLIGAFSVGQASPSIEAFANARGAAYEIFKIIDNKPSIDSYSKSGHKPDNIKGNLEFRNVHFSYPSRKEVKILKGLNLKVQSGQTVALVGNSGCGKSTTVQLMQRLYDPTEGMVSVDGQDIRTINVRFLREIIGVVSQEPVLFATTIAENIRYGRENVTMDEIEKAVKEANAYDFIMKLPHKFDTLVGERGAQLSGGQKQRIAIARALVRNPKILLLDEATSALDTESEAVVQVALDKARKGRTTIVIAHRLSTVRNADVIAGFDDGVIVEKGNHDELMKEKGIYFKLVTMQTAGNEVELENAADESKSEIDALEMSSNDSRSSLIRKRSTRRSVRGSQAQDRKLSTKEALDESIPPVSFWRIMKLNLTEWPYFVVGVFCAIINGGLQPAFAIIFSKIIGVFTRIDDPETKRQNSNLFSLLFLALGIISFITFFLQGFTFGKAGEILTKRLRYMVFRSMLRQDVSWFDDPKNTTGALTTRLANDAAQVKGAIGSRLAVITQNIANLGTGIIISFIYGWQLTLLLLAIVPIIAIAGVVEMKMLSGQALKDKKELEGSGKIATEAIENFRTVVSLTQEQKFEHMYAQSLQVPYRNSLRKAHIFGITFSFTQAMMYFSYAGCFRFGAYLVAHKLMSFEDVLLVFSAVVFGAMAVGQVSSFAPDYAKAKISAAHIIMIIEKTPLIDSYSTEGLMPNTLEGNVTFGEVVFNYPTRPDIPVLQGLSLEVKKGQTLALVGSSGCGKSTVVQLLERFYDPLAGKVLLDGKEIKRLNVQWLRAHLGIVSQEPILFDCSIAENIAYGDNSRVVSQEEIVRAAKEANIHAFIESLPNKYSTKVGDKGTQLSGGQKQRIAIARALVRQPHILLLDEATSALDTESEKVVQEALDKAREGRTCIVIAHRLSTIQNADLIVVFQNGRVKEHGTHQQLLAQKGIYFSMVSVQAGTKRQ

EC50 [2]: 4300 nM | effect on ATP-induced thermostabilization of P-gp [3]: preventing thermostabilization | IT50, P-gp -ATP ([3]; absence of ATP): 50.02 ± 0.31 ºC | binding of conformational antibody 5D3 [4]: increased the binding of 5D3 | effect on thermal stability of ABCG2 [5]: mild effect | IT50, ABCG2 -ATP ([5]; absence of ATP): 50.01 ± 0.26 ºC | IT50 (temperature that reduces 50% of the ATPase activity), ABCG2 +ATP ([5]; presence of ATP): 55.44 ± 0.25 ºC | solubility [6]: low solubility | inhibition of rhodamine 123 efflux mediated by P-gp [7]: did not inhibit | inhibition of hoechst 33342 efflux mediated by ABCG2 (confocal microscopy) [8]: inhibited the efflux of all | EC50 [9]: 64 nM | inhibition of bodipy-prazosin efflux mediated by ABCG2 ([10]; 10 µM, bodipy-prazosin 0.2 µM): inhibited the efflux of all | inhibition of pheophorbide-a efflux mediated by ABCG2 ([10]; 10 µM, pheophorbide a 10 µM): inhibited the efflux of all | inhibition of ABCG2 by supernatant (human EV preparation) ([10]; C4a free in supernatant, even at lower concentration tested 0.1 µM): strongly inhibited ABCG2
SMILES: COc1ccc2[nH]cc(CCNC(=O)c3cc(=O)c4c(OCc5ccccc5Br)cccc4o3)c2c1 [C4a, chromone 4a]
selectivity ratio at 20 min [1]: 67 | inhibition of mitoxantrone efflux mediated by ABCG2 ([10]; 10 µM, mitoxantrone 10 µM, HEK293-ABCG2): completely inhibited; also recorded: inhibited the efflux of all | reversion of the resistance phenotype mediated by ABCG2, supernatant ([11]; supernatant containing C4a free at 0.1 to 10 µM + SN38 10 nM): complete reversion | inhibition of calcein efflux mediated by MRP1 [12]: did not inhibit | IC50 [13]: 86 nM

solubility [6]: low solubility
SMILES: COc1ccc2[nH]cc(CCNC(=O)c3cc(=O)c4c(OCc5ccc(Br)cc5)cccc4o3)c2c1 [MBL-II-141]
growth of implanted ABCG2-positive tumors in mice ([14]; in combination with irinotecan): inhibiting the growth of implanted ABCG2-positive tumors | IC50 [13]: 260 nM

SMILES: COc1ccc2c(=O)c3cccc(C(=O)NCc4ccc(OC)c(OC)c4)c3[nH]c2c1 [MBLI-87]
cytotoxicity [15]: low cytotoxicity | sensitization of xenografic tumors overexpressing ABCG2 to irinotecan [14]: successfully sensitized xenografic tumors overexpressing ABCG2 to irinotecan | IC50 [13]: 450 nM

SMILES: CCc1c2c(nc3ccc(O)cc13)-c1cc3c(c(=O)n1C2)COC(=O)[C@]3(O)CC [SN38, reference compound]
cytotoxic effect on wild-type HEK293 cells [16]: highly cytotoxic | cell viability of cells overexpressing ABCG2 ([11]; SN38 10 nM, 72 h, MTT): mild decrease in the cell viability
